Assay results as given in patent publication US20250332173A1, “COMPOUNDS AND METHODS FOR MODULATING NUCLEIC ACID SPLICING” (REMIX THERAPEUTICS INC., priority 2021, published 2025).

What follows are compounds tested on HTT (assay: HiBiT protein abundance assay, HTT HiBiT K562 cell line). Conditions: HiBiT K562 cell line, 24 hours, top dose 10 μM; read-out: Effect on protein abundance, HTT (IC50 category).
Format: cell-based, human
How it was run: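 Endogenous targets in K562 knock-in lines carried a HiBiT tag and were treated for 24 h at 37 °C with 10-point 3-fold dilutions (top 10 μM final, DMSO ≤0.25%). Abundance was read as lytic Nano-Glo HiBiT luminescence. IC50 came from a four-parameter logistic fit of normalized response.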
With Cc1c(O)c(-c2ncc3c(=O)n([C@@H]4CCN[C@H](C)C4)ccc3n2)cc2cn(C)nc12 [Compound 1434, 2-(6-hydroxy-2,7-dimethyl-indazol-5-yl)-6-(2-methyl-4-piperidyl)pyrido[4,3-d]pyrimidin-5-one] the IC50 was 0.1 to 1 µM.
Work on CCN1CCC(n2ccc3cc(-c4cc(C)c5nn(C)cc5c4)ncc3c2=O)CC1 [Compound 1207, 6-(2,7-dimethyl-2H-indazol-5-yl)-2-(1-ethylpiperidin-4-yl)-2,7-naphthyridin-1(2H)-one] yielded an IC50 of 1 to 10 µM.
In the case of Cc1c(O)c(-c2ncc3c(=O)n(C4CCN(C)CC4)ccc3n2)cc2cn(C)nc12 [Compound 1304], the IC50 is reported as 0.1 to 1 µM.
With Cc1c(O)c(-c2ncc3c(=O)n([C@H]4CCN[C@@H](C)C4)ccc3n2)cc2cn(C)nc12 [Compound 1441, 2-(6-hydroxy-2,7-dimethyl-indazol-5-yl)-6-(2-methyl-4-piperidyl)pyrido[4,3-d]pyrimidin-5-one] the IC50 was < 0.1 µM.
In the case of COc1c(-c2ccc3c(=O)n(C4CCNCC4)ccc3n2)cc2cn(C)nc2c1C [Compound 1243], the IC50 is reported as > 10 µM.
Cc1c(O)c(-c2ncc3c(=O)n([C@@H]4C[C@H]5C[C@@H]4CN5)ccc3n2)cc2cn(C)nc12 [Compound 1445, 6-[(1R,4R,5R)-2-azabicyclo[2.2.1]heptan-5-yl]-2(6-hydroxy-2,7-dimethyl-indazol-5-yl)pyrido[4,3-d]pyrimidin-5-one] was tested, and the IC50 was > 10 µM.
For Cc1c(O)c(-c2ncc3c(=O)n([C@@H]4C[C@H]5C[C@@H]4CN5)ccc3n2)cc2cn(C)nc12 (stereo in doubt) [Compound 1446, 6-[(1R,4R,5R)-2-azabicyclo[2.2.1]heptan-5-yl]-2-(6-hydroxy-2,7-dimethyl-indazol-5-yl)pyrido[4,3-d]pyrimidin-5-one], the IC50 was > 10 µM.
CN1CCC(Nc2ccc3c(=O)n(-c4ccc5cn(C)nc5c4)cnc3c2)CC1 [Compound 203] was tested, and the IC50 was > 10 µM.
With Cc1c(O)c(-c2ncc3c(=O)n(N4CCNCC4)ccc3n2)cc2cn(C)nc12 [Compound 1303] the IC50 was 0.1 to 1 µM.
In the case of Cc1cn2cc(-c3ccc4c(=O)n(C5CCNCC5)ccc4n3)c(O)cc2n1 [Compound 1240], the IC50 is reported as > 10 µM.
In the case of Cc1cc(-c2cc3ccn(C4CCNCC4)c(=O)c3cn2)cc2cn(C)nc12 [Compound 1204, 6-(2,7-dimethyl-2H-indazol-5-yl)-2-(piperidin-4-yl)-2,7-naphthyridin-1(2H)-one], the IC50 is reported as 0.1 to 1 µM.
In the case of Cc1c(O)c(-c2ncc3c(=O)n(C4CNC4)ccc3n2)cc2cn(C)nc12 [Compound 1305, 6-(azetidin-3-yl)-2-(6-hydroxy-2,7-dimethyl-indazol-5-yl)pyrido[4,3-d]pyrimidin-5-one], the IC50 is reported as > 10 µM.
Cc1cn2cc(-c3ccc4c(=O)n(C5CCNC5)ccc4n3)c(O)c(C)c2n1 (stereo not shown) [Compound 1302] was tested, and the IC50 was > 10 µM.
Cc1c(O)c(-c2ncc3c(=O)n([C@@H]4CC5CC4CN5)ccc3n2)cc2cn(C)nc12 (stereo in doubt) [Compound 1443, 6-[(1R,4R,5R)-2-azabicyclo[2.2.1]heptan-5-yl]-2-(6-hydroxy-2,7-dimethyl-indazol-5-yl)pyrido[4,3-d]pyrimidin-5-one] showed an IC50 of 1 to 10 µM.
With Cc1c(O)c(-c2ncc3c(=O)n(C4C[C@H](C)N[C@@H](C)C4)ccc3n2)cc2cn(C)nc12 (stereo partly drawn) [Compound 1455, 6-[(2S,6S)-2,6-dimethyl-4-piperidyl]-2-(6-hydroxy-2,7-dimethyl-indazol-5-yl)pyrido[4,3-d]pyrimidin-5-one] the IC50 was 0.1 to 1 µM.
Cc1cn2cc(-c3ccc4c(=O)n(C5CCNCC5)ccc4n3)nc(C)c2n1 [Compound 1238, 2-(2,8-dimethylimidazo[1,2-a]pyrazin-6-yl)-6-(piperidin-4-yl)-1,6-naphthyridin-5(6H)-one] was tested, and the IC50 was > 10 µM.
In the case of Cc1cn2cc(-c3ncc4c(=O)n([C@@H]5CCNC5)ccc4n3)cc(F)c2n1 [Compound 1228], the IC50 is reported as > 10 µM.
With Cc1cn2cc(-c3ccc4c(=O)n(C5CCNC5)ccc4n3)cc(F)c2n1 (stereo not shown) [Compound 1299] the IC50 was > 10 µM.
With Cc1cn2cc(-c3cc4ccn(C5CCNC5)c(=O)c4cn3)cc(C#N)c2n1 (stereo not shown) [Compound 1214] the IC50 was > 10 µM.
